From ChEMBL document CHEMBL1201862, “PubChem BioAssay data set” (2004) come the findings set out here.

Structures are written as SMILES. Where a name gives a salt, the structure may show the parent alone.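 How tested: cells in 96-well plates exposed to compound for 48 hours at five concentrations. GI50: concentration for 50% inhibition of growth.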 Calls of active or inactive are those of the source. No stated cut-off is given here; in the data, active = GI50 up to about 1.1 µM and inactive = higher.

Some test systems named below: SK-MEL-2; OVCAR-5; HT-29; UACC-257; EKVX; NCI-H522; OVCAR-8; HCT-116; SNB-19; RPMI-8226; MDA-MB-435; 786-0; MDA-N; SF-268; SF-295; SN12C; NCI-H23; MCF7; SNB-75; HOP-92.
Common to all, as to assay: NCI anticancer screen, dose series, 48 h

Consider `O=C(CCl)Nc1cc(Cl)c(Cl)cc1Cl`, for which the GI50 with SK-MEL-2 is 1.64 µM (inactive); in the experiment with OVCAR-5, 2.12 µM (inactive); in the experiment on HT-29, 2 µM (inactive); in the experiment on UACC-257, 1.84 µM (inactive); with EKVX, 2.54 µM (inactive); with NCI-H522, 0.505 µM (active). In addition, the GI50 with OVCAR-8 was 1.73 µM (inactive); in the experiment on HCT-116, 1.59 µM (inactive); with SNB-19, 2.27 µM (inactive); in the experiment with RPMI-8226 it was 4.74 µM (inactive); in the experiment on MDA-MB-435, 1.38 µM (inactive); in the experiment on 786-0, 1.51 µM (inactive). Besides, the GI50 was 1.69 µM (inactive) in the experiment with MDA-N; 2.3 µM (inactive) with SF-268; 5.26 µM (inactive) in the experiment on SF-295; 1.52 µM (inactive) with SN12C; 1.7 µM (inactive) with NCI-H23; 2.07 µM (inactive) with MCF7.
`Nc1ccc2nc(N)n[n+]([O-])c2c1`: the GI50 in the experiment on SK-MEL-2 is > 100 µM (inactive); in the experiment with OVCAR-5, > 100 µM (inactive); with SNB-75 it was 92.7 µM (inactive); with HT-29, > 100 µM (inactive); with UACC-257, > 100 µM (inactive); with EKVX it was > 100 µM (inactive). In addition, the GI50 in the experiment with NCI-H522, in the experiment with OVCAR-8, in the experiment on HCT-116, with SNB-19, with RPMI-8226 and with MDA-MB-435 was > 100 µM (inactive) throughout. Besides, the GI50 in the experiment with 786-0 is > 100 µM (inactive); with MDA-N, > 100 µM (inactive); in the experiment with SF-268, > 100 µM (inactive); with SF-295, 10 µM (inactive); in the experiment on SN12C it was > 100 µM (inactive); with NCI-H23 it was > 100 µM (inactive). Also, the GI50 in the experiment with MCF7 was > 100 µM (inactive).
On to `O=C(NCCCCCCNC(=O)c1cc(-c2ccccc2)nc2ccccc12)c1cc(-c2ccccc2)nc2ccccc12`, for which the GI50 in the experiment on OVCAR-5 is > 100 µM (inactive); in the experiment on SNB-75, 33.3 µM (inactive); with HT-29, > 100 µM (inactive); in the experiment on UACC-257, > 100 µM (inactive); in the experiment with HOP-92, > 100 µM (inactive); with EKVX, > 100 µM (inactive). For the same compound, the GI50 with NCI-H522, in the experiment on OVCAR-8, with HCT-116, in the experiment with SNB-19, in the experiment on RPMI-8226 and in the experiment with MDA-MB-435 was > 100 µM (inactive) in each case. The GI50 was 31.6 µM (inactive) in the experiment on 786-0; > 100 µM (inactive) in the experiment on MDA-N; > 100 µM (inactive) in the experiment with SF-268; 84.7 µM (inactive) in the experiment with SF-295; > 100 µM (inactive) in the experiment on SN12C; > 100 µM (inactive) with NCI-H23. Besides, in the experiment with MCF7, the GI50 was > 100 µM (inactive).
In the case of `O=S(=O)(c1ccc(/N=N/O)nc1)c1ccc2ccccc2c1`, the GI50 with SK-MEL-2 was > 100 µM (inactive); with OVCAR-5, > 100 µM (inactive); with SNB-75 it was 22.1 µM (inactive); in the experiment on HT-29 it was 65.8 µM (inactive); with UACC-257, > 100 µM (inactive); in the experiment with EKVX, > 100 µM (inactive). The GI50 in the experiment on NCI-H522, in the experiment on OVCAR-8, in the experiment with HCT-116, in the experiment with SNB-19, with 786-0 and with MDA-N was > 100 µM (inactive) each time. The GI50 is > 100 µM (inactive) with SF-268; > 100 µM (inactive) with SF-295; 95.5 µM (inactive) in the experiment on SN12C; 65.9 µM (inactive) with NCI-H23; > 100 µM (inactive) in the experiment with MCF7.
Regarding `O=C(O)Cn1ccc(=O)c2c([N+](=O)[O-])cccc21`, the GI50 with SK-MEL-2, with OVCAR-5, in the experiment with SNB-75, in the experiment with HT-29, with UACC-257 and with NCI-H522 was > 100 µM (inactive) each time. Besides, the GI50 in the experiment on OVCAR-8, in the experiment on HCT-116, in the experiment with SNB-19, in the experiment with MDA-MB-435, in the experiment with 786-0 and with MDA-N was > 100 µM (inactive) in each case. The GI50 in the experiment with SF-268, in the experiment with SF-295, with SN12C, with NCI-H23 and in the experiment with MCF7 was > 100 µM (inactive) each time.
As to `NCCc1cc(O)c(O)cc1O` [OXIDOPAMINE HYDROCHLORIDE], the GI50 was 43.5 µM (inactive) in the experiment with SK-MEL-2; 37.1 µM (inactive) with OVCAR-5; 23.7 µM (inactive) in the experiment on SNB-75; 32.3 µM (inactive) with HT-29; 20.4 µM (inactive) in the experiment with UACC-257; 26.6 µM (inactive) with EKVX. Also, the GI50 was 32.4 µM (inactive) with OVCAR-8; 18.7 µM (inactive) in the experiment with HCT-116; 32.5 µM (inactive) in the experiment on SNB-19; 3.19 µM (inactive) with RPMI-8226; 18.9 µM (inactive) in the experiment on MDA-MB-435; 18.6 µM (inactive) in the experiment with 786-0. Also, the GI50 with MDA-N was 22.6 µM (inactive); in the experiment with SF-268 it was 21.8 µM (inactive); in the experiment on SF-295 it was 24 µM (inactive); with SN12C it was 25.3 µM (inactive); in the experiment on MCF7, 25.3 µM (inactive).
On to `Cc1ccc(Nc2cn(COCc3ccccc3)c(=O)[nH]c2=O)cc1`, for which the GI50 in the experiment with OVCAR-5, in the experiment on HT-29, with UACC-257, in the experiment with HOP-92, with EKVX and with HCT-116 was > 100 µM (inactive) each time. Moreover, the GI50 is 75.2 µM (inactive) in the experiment with SNB-19; > 100 µM (inactive) with RPMI-8226; > 100 µM (inactive) in the experiment on MDA-MB-435; 43.5 µM (inactive) with 786-0; > 100 µM (inactive) in the experiment with MDA-N; 27.8 µM (inactive) in the experiment with SF-268. The GI50 is 39.7 µM (inactive) with SF-295, > 100 µM (inactive) in the experiment on SN12C, 25.5 µM (inactive) in the experiment on NCI-H23 and > 100 µM (inactive) in the experiment on MCF7.
`[N-]=[N+]=NC1CC(n2ccc(N)nc2=O)OC1COP(=O)(O)OP(=O)(O)OP(=O)(O)O` (stereo unspecified): the GI50 in the experiment on OVCAR-5, in the experiment on SNB-75, in the experiment with HT-29, with UACC-257, with EKVX and in the experiment with NCI-H522 was > 100 µM (inactive) in each case. In addition, the GI50 in the experiment with OVCAR-8, in the experiment on HCT-116, in the experiment on SNB-19, in the experiment on RPMI-8226, in the experiment with MDA-MB-435 and in the experiment on 786-0 was > 100 µM (inactive) throughout. Further, the GI50 in the experiment on MDA-N, with SF-268, in the experiment with SF-295, in the experiment on SN12C and in the experiment on MCF7 was > 100 µM (inactive) throughout.
`N#Cc1c(=O)c2ccccc2n2ccccc12`: the GI50 in the experiment on SK-MEL-2 was 13.4 µM (inactive); in the experiment with SNB-75, > 100 µM (inactive); in the experiment on HT-29, > 100 µM (inactive); in the experiment with UACC-257 it was > 100 µM (inactive); in the experiment with HOP-92, > 100 µM (inactive); with NCI-H522 it was > 100 µM (inactive). In addition, the GI50 in the experiment with OVCAR-8 was > 100 µM (inactive); with HCT-116 it was > 100 µM (inactive); in the experiment with SNB-19 it was 83.6 µM (inactive); in the experiment on RPMI-8226 it was > 100 µM (inactive); in the experiment on MDA-MB-435, > 100 µM (inactive); in the experiment on 786-0, > 100 µM (inactive). For the same compound, the GI50 with MDA-N, in the experiment on SF-268, in the experiment with SN12C and in the experiment on NCI-H23 was > 100 µM (inactive) each time.
Take `CSc1c(C#N)c(=O)[nH]c2[nH]nc(C)c12`: the GI50 in the experiment on SK-MEL-2, with OVCAR-5, in the experiment with SNB-75, in the experiment on HT-29, in the experiment with UACC-257 and in the experiment on EKVX was > 100 µM (inactive) throughout. Further, the GI50 was > 100 µM (inactive) with OVCAR-8; 33.3 µM (inactive) in the experiment on HCT-116; > 100 µM (inactive) in the experiment with SNB-19; > 100 µM (inactive) in the experiment on RPMI-8226; > 100 µM (inactive) in the experiment on MDA-MB-435; > 100 µM (inactive) in the experiment on 786-0. Also, the GI50 with MDA-N, in the experiment on SF-268, in the experiment with SN12C, in the experiment with NCI-H23 and with MCF7 was > 100 µM (inactive) each time.
On to `Cc1cc2nc3c(C#N)c(-c4ccccc4)cc(Nc4cccc(C(F)(F)F)c4)n3c2cc1C`, for which the GI50 in the experiment with SK-MEL-2 was 2.61 µM (inactive); in the experiment on OVCAR-5, 12.9 µM (inactive); in the experiment with SNB-75, 8.83 µM (inactive); in the experiment on UACC-257, 3.48 µM (inactive); in the experiment with EKVX, 4.68 µM (inactive); in the experiment with NCI-H522 it was 4.49 µM (inactive). In addition, the GI50 was 4.14 µM (inactive) in the experiment with OVCAR-8; 2.7 µM (inactive) in the experiment with HCT-116; 4.86 µM (inactive) in the experiment with SNB-19; 1.61 µM (inactive) with RPMI-8226; 5.13 µM (inactive) in the experiment on MDA-MB-435; 4.4 µM (inactive) in the experiment on 786-0. Besides, the GI50 is 4.04 µM (inactive) in the experiment on MDA-N; 6.97 µM (inactive) in the experiment with SF-268; 7.19 µM (inactive) in the experiment on SF-295; 3.68 µM (inactive) in the experiment with SN12C; 5.25 µM (inactive) with NCI-H23; 3.91 µM (inactive) in the experiment on MCF7.
